Values of other authors, collected in patent publication US20190328829A1, “TRIPARTITE COMBINATION THERAPY FOR PROSTATE CANCER” (UNIVERSITY OF MARYLAND, BALTIMORE, priority 2016, published 2019).

Tests used:
[1] = tested on: testosterone; conditions: males, continuous administration

solubility in water	SMILES	testosterone reduced to castrate levels [1]
–	CCNC(=O)[C@@H]1CCCN1C(=O)[C@H](CCCNC(=N)N)NC(=O)[C@H](CC(C)C)NC(=O)[C@@H](CC(C)C)NC(=O)[C@H](Cc1ccc(O)cc1)NC(=O)[C@H](CO)NC(=O)[C@H](Cc1c[nH]c2ccccc12)NC(=O)[C@H](Cc1c[nH]cn1)NC(=O)[C@@H]1CCC(=O)N1 [leuprolide acetate, Leuprolide acetate]	below 50 ng/dL
virtually insoluble in water	O=c1c(-c2ccc(O)cc2)coc2cc(O)cc(O)c12 [Genistein, 5,7-dihydroxy-3-(4-hydroxyphenyl)-chromen-4-one]	–
